Laboratory results as given in patent publication US7322965B2, “Infection-resistant medical devices” (priority 2002, dated 2008).
Values after ≈ are worked out from the molar mass of the structure shown.

Assays:
bacterial adherence = conditions: subinhibitory concentrations; other investigators; cited from earlier work
[1] = Resistance to thermal decomposition; assay type: physicochemical
Description: The medical device can be, for example, a suture, orthopedic appliance, stent, catheter, guidewire, shunt (e.g., hemodialysis shunt or cerebrospinal shunt), prosthesis (e.g., prosthetic heart valve or prosthetic joint), cardiac pacemaker, neuronal stimulator, or vascular graft. The medical device can be made of biomaterials (i.e., biologically-compatible materials known to those skilled in the art, such as metal, polymeric, or ceramic materials). The antimicrobial agent can be incorporated into the medical device according to methods known to those skilled in the art, such as by immersing the medical device in a solution (e.g., an aqueous solution) containing the antimicrobial agent, or, for example, by methods described in one of the following references: U.S. Pat. No. 3,987,797; U.S. Pat. No. 4,563,485; U.S. Pat. No. 4,875,479; U.S. Pat. No. 4,946,870; U.S. Pat. No. 5,306,289; U.S. Pat. No. 5,584,877; U.S. Pat. No. 5,607,685; U.S. Pat. No. 5,788,979; U.S. Pat. No. 6,143,037; U.S. Pat. No. 6,238,687; WO00/56283; and WO 01/28601, the disclosures of which are incorporated herein by reference. The medical device can include a polymeric material, and the polymeric material can be co-extruded with the antibacterial agent. […]

S. aureus UC-20205 = experiment: Determination of minimum inhibitory concentration (microdilution); assay type: cell-based; conditions: Staphylococcus aureus, UC20205, 18 h

Structure (SMILES)	activity against bacterial adherence (bacterial adherence)	temperature up to which resistant to thermal decomposition [1]	MIC (S. aureus UC-20205) [µg/mL]
CN[C@H](CC(C)C)C(=O)N[C@H]1C(=O)N[C@@H](CC(N)=O)C(=O)N[C@H]2C(=O)N[C@H]3C(=O)N[C@H](C(=O)N[C@H](C(=O)O)c4cc(O)cc(O)c4-c4cc3ccc4O)[C@H](O)c3ccc(c(Cl)c3)Oc3cc2cc(c3O[C@@H]2O[C@H](CO)[C@@H](O)[C@H](O)[C@H]2O[C@H]2C[C@](C)(N)[C@H](O)[C@H](C)O2)Oc2ccc(cc2Cl)[C@H]1O [Vancomycin]	minimal or no activity against bacterial adherence	–	–
CC(=O)NC[C@H]1CN(c2ccc(N3CCOCC3)c(F)c2)C(=O)O1 [Linezolid, (S)-N-[[3-[3-fluoro-4-(4-morpholinyl)phenyl]-2-oxo-5-oxazolidinyl]methyl]acetamide]	–	at least 121 °C	2 (≈ 5.93 µM)
